Laboratory results as given in ChEMBL document CHEMBL1201862, “PubChem BioAssay data set” (2004).
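Results reflect a 48-hour exposure of cells in 96-well plates to compound at five concentrations. Here, GI50 denotes the concentration required for 50% inhibition of growth.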 Activity calls are given as the source filed them. Cut-off read from the data, not from the text of the source: active = GI50 up to about 1.1 µM and inactive = higher.

What was measured:
Assay in all cases: growth of human tumour cells (NCI), 48 h
HT-29 = tested on: HT-29
T47D = tested on: T47D
MOLT-4 = tested on: MOLT-4
SF-268 = tested on: SF-268
MDA-N = tested on: MDA-N
HOP-62 = tested on: HOP-62
SF-295 = tested on: SF-295
OVCAR-4 = tested on: OVCAR-4
HCT-116 = tested on: HCT-116
UACC-62 = tested on: UACC-62
SNB-75 = tested on: SNB-75
Hs-578T = tested on: Hs-578T
CAKI-1 = tested on: CAKI-1
MDA-MB-231 = tested on: MDA-MB-231
DU-145 = tested on: DU-145
MCF7 = tested on: MCF7
K562 = tested on: K562
CCRF-CEM = tested on: CCRF-CEM
EKVX = tested on: EKVX
IGROV-1 = tested on: IGROV-1
HOP-92 = tested on: HOP-92
UO-31 = tested on: UO-31
HCT-15 = tested on: HCT-15
OVCAR-3 = tested on: OVCAR-3
SW-620 = tested on: SW-620
SR = tested on: SR
KM12 = tested on: KM12
SNB-19 = tested on: SNB-19
A549 = tested on: A549
MDA-MB-435 = tested on: MDA-MB-435
M14 = tested on: M14
SK-MEL-28 = tested on: SK-MEL-28
SK-MEL-2 = tested on: SK-MEL-2
SK-MEL-5 = tested on: SK-MEL-5
NCI-H460 = tested on: NCI-H460
HCC 2998 = tested on: HCC 2998
PC-3 = tested on: PC-3
RPMI-8226 = tested on: RPMI-8226
NCI-H522 = tested on: NCI-H522
TK-10 = tested on: TK-10
NCI-H226 = tested on: NCI-H226
NCI-H23 = tested on: NCI-H23
OVCAR-5 = tested on: OVCAR-5
SN12C = tested on: SN12C
RXF 393 = tested on: RXF 393
U-251 = tested on: U-251
LOX IMVI = tested on: LOX IMVI
ACHN = tested on: ACHN
HL-60 = tested on: HL-60
NCI/ADR-RES = tested on: NCI/ADR-RES
UACC-257 = tested on: UACC-257
SF-539 = tested on: SF-539
COLO 205 = tested on: COLO 205
SK-OV-3 = tested on: SK-OV-3
OVCAR-8 = tested on: OVCAR-8
786-0 = tested on: 786-0
Malme-3M = tested on: Malme-3M
A498 = tested on: A498

Measured: GI50

COc1cc(N(Cc2ccc3oc(=O)c(-c4ccccc4)nc3c2)Cc2ccc3oc(=O)c(-c4ccccc4)nc3c2)cc(OC)c1OC
inactive: HT-29 > 10 µM | T47D > 10 µM | MOLT-4 > 10 µM | SF-268 > 10 µM | MDA-N > 10 µM | HOP-62 > 10 µM | SF-295 > 10 µM | OVCAR-4 > 10 µM | HCT-116 > 10 µM | UACC-62 > 10 µM | SNB-75 > 10 µM | Hs-578T > 10 µM | CAKI-1 > 10 µM | MDA-MB-231 > 10 µM | DU-145 > 10 µM | MCF7 > 10 µM | K562 > 10 µM | CCRF-CEM > 10 µM | EKVX > 10 µM | IGROV-1 > 10 µM | HOP-92 > 10 µM | UO-31 > 10 µM | OVCAR-3 > 10 µM | SW-620 > 10 µM | SR > 10 µM | KM12 > 10 µM | SNB-19 > 10 µM | A549 > 10 µM | MDA-MB-435 > 10 µM | M14 > 10 µM | SK-MEL-28 > 10 µM | SK-MEL-2 > 10 µM | SK-MEL-5 > 10 µM | NCI-H460 > 10 µM | HCC 2998 > 10 µM | PC-3 > 10 µM | RPMI-8226 > 10 µM | NCI-H522 > 10 µM | TK-10 > 10 µM | NCI-H226 > 10 µM | NCI-H23 > 10 µM | OVCAR-5 > 10 µM | SN12C > 10 µM | RXF 393 > 10 µM | U-251 > 10 µM | LOX IMVI > 10 µM | ACHN > 10 µM | HL-60 > 10 µM | NCI/ADR-RES > 10 µM | UACC-257 > 10 µM | SF-539 > 10 µM | COLO 205 > 10 µM | SK-OV-3 > 10 µM | OVCAR-8 > 10 µM | 786-0 > 10 µM
> 10 µM: HCT-15

O=c1[nH]c(=O)n(C2CC(O)C(COP(=O)(OCC(Cl)(Cl)Cl)OCC(Cl)(Cl)Cl)O2)cc1F (stereo not drawn)
inactive: HT-29 9.23 µM | T47D > 50.8 µM | SF-268 1.24 µM | MDA-N > 26 µM | OVCAR-4 > 76 µM | HCT-116 2.21 µM | SNB-75 6.1 µM | Hs-578T 52.7 µM | MDA-MB-231 > 47 µM | DU-145 2.81 µM | K562 4.11 µM | EKVX > 100 µM | IGROV-1 > 65.6 µM | HOP-92 6.9 µM | Malme-3M 6.05 µM | OVCAR-3 8 µM | SW-620 > 100 µM | KM12 > 100 µM | SNB-19 7.98 µM | MDA-MB-435 > 86.3 µM | M14 2 µM | SK-MEL-28 > 28.6 µM | SK-MEL-2 > 100 µM | SK-MEL-5 1.97 µM | PC-3 15.2 µM | RPMI-8226 3.72 µM | TK-10 > 100 µM | NCI-H226 95.1 µM | NCI-H23 8.63 µM | OVCAR-5 > 94.2 µM | SN12C 26.1 µM | U-251 2.95 µM | LOX IMVI > 35.1 µM | HL-60 5.85 µM | NCI/ADR-RES 1.29 µM | UACC-257 > 100 µM | COLO 205 23.5 µM | SK-OV-3 > 48.6 µM
active: MOLT-4 1.1 µM | HOP-62 0.115 µM | SF-295 0.123 µM | UACC-62 0.396 µM | CAKI-1 0.3 µM | MCF7 0.0619 µM | CCRF-CEM 0.195 µM | UO-31 0.301 µM | SR 0.391 µM | A549 0.212 µM | NCI-H460 < 0.0226 µM | HCC 2998 < 0.01 µM | ACHN 0.298 µM | OVCAR-8 0.556 µM | 786-0 0.245 µM
> 56.1 µM: HCT-15

O=C(OC[C@H]1C[C@H]2C(=O)OCCC[C@H]2O1)c1ccccc1
> 100 µM: HCT-15
inactive: HT-29 > 100 µM | T47D > 100 µM | MOLT-4 > 100 µM | SF-268 > 100 µM | MDA-N > 100 µM | HOP-62 > 100 µM | SF-295 > 100 µM | OVCAR-4 > 100 µM | HCT-116 > 100 µM | UACC-62 > 100 µM | SNB-75 > 100 µM | A498 > 100 µM | Hs-578T > 100 µM | CAKI-1 > 100 µM | MDA-MB-231 > 100 µM | DU-145 > 100 µM | MCF7 > 100 µM | K562 > 100 µM | CCRF-CEM > 100 µM | EKVX > 100 µM | IGROV-1 > 100 µM | HOP-92 > 100 µM | UO-31 > 100 µM | OVCAR-3 > 100 µM | SW-620 > 100 µM | SR > 100 µM | KM12 > 100 µM | SNB-19 > 100 µM | A549 > 100 µM | MDA-MB-435 > 100 µM | M14 > 100 µM | SK-MEL-28 > 100 µM | SK-MEL-2 > 100 µM | SK-MEL-5 > 100 µM | NCI-H460 > 100 µM | PC-3 > 100 µM | RPMI-8226 > 100 µM | NCI-H522 > 100 µM | TK-10 > 100 µM | NCI-H226 > 100 µM | NCI-H23 > 100 µM | OVCAR-5 > 100 µM | SN12C > 100 µM | U-251 > 100 µM | ACHN > 100 µM | HL-60 > 100 µM | NCI/ADR-RES > 100 µM | UACC-257 > 100 µM | COLO 205 > 100 µM | SK-OV-3 > 100 µM | OVCAR-8 > 100 µM | 786-0 > 100 µM
